Assays:
Type in all cases: in vivo, maize
ZEAMA Sileno [1] = assay: Tank-mix; post-emergence, crop damage with and without safener; settings: for HER effect + SAF / HER effect: Final assessment; for HER effect: no safener
Method in brief: (§1)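 Crops in sandy loam in the greenhouse were sprayed at the 1–3-leaf stage, 2–3 weeks after sowing, with herbicide/safener combinations or the single actives at various dosages in 300 l/ha water. Injury was scored visually 1–3 weeks after treatment as % versus untreated plants (0% none, 100% complete kill).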

ZEAMA Sileno [2] = assay: Treatment 1 day before (safener applied one day before herbicide, post-emergence); set-up: key to Reduction [Difference]: percentage points of visually scored % crop damage vs untreated control; settings: for Reduction [%] / Reduction [Difference]: cyprosulfamide 100 g a.i./ha 1 day before; for HER effect + SAF: cyprosulfamide 100 g a.i./ha applied 1 day before; for HER effect + SAF / HER effect: Final assessment; for HER effect: no safener
Text: Seeds of crops (spring wheat, TRZAS; spring barley, HORVS; maize, ZEAMA) were placed in sandy loam soil in pots of a diameter of 7-8 cm, covered with soil, and cultivated in a greenhouse under good growth conditions until plants were at the 1-3 leaf stage (BBCH 11-13). For split safener and herbicide treatment, first the safener was applied followed by the herbicide treatment on the following day. The safener and herbicides were formulated as WP and sprayed onto the green parts of the plants as an aqueous suspension at an equivalent water application rate of 300 1/ha, with addition of wetting agent and adjuvants (e.g. Mero, 1.5 1/ha; ammonium sulphate, 2 kg/ha). An equivalent set of plants was treated with the herbicides but without the prior safener treatment.
(§2) After application, the test plants were kept in the greenhouse under good growth conditions. 10 and 21 days after treatment (DAT) with the herbicide, % crop damage observed on the treated plants was scored visually in comparison to control plants that had not received any safener or herbicide treatment.

ZEAMA Sileno [3] = assay: Seed treatment with safener; pre-emergence herbicide application; settings: for Reduction [%] / Reduction [Difference]: cyprosulfamide 0.25 g a.i./kg seed; for HER effect + SAF: cyprosulfamide seed treatment 0.25 g a.i./kg seed; for HER effect: no safener
Method: For the safener seed treatment, sufficient seeds of the respective crops (spring wheat, TRZAS; spring barley, HORVS; maize, ZEAMA) were weighed into screw top glass bottles approximately twice the volume of the seeds.
The specified safeners, formulated as wettable powder (WP) were weighed out so that the specified rates (g a.i./kg seed) would be obtained, dissolved in water (1 ml water per 10 g of seeds), and added to the seeds to produce a slurry.
The bottles were capped and then placed in an overhead shaker (set at medium speed for ca. 60 minutes) so that the seeds were evenly coated with the slurry. The bottles were uncapped and the seeds were either placed on paper and dried for an interval of 3-4 hours prior to sowing, or directly sown. Seeds were placed in sandy loam soil in pots of a diameter of 7-8 cm, and covered with soil.
Pre-emergence application of the specified herbicides was done subsequently, on two sets of plants: • a) seed treatment with safener, as described above • b) no safener treatment
The herbicides were formulated as WP and was sprayed onto the soil surface as an aqueous suspension at an equivalent water application rate of 300 1/ha.
as §2, with “At intervals up to 4 weeks after application (=28” for “10 and 21”, “treatment; DAT),” for “treatment (DAT) with the herbicide,”
Values in the table below are mean values of at least 2 replicates.

ZEAMA Sileno [4] = assay: Seed treatment with safener; post-emergence herbicide application; set-up: Reduction [Difference]: scale not given here; settings: Final assessment; for Reduction [%] / Reduction [Difference]: Cyprosulfamide 0.5 g a.i./kg seed; for Reduction [Difference]: damage without safener - damage with safener; for HER effect + SAF (crop damage with safener): Cyprosulfamide seed treatment 0.5 g a.i./kg seed; for HER effect (crop damage, herbicide without safener): no safener
Method in brief: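 Maize seeds slurry-coated with WP safener (g a.i./kg seed) or left untreated, sown in sandy loam and grown in greenhouse. WP herbicide sprayed post-emergence at BBCH11-13 in 300 l/ha water with wetting agent and adjuvants (e.g. Mero 1.5 l/ha, ammonium sulphate 2 kg/ha); means of at least 2 replicates.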

ZEAMA Abraxas = assay: Tank-mix; post-emergence, crop damage with and without safener; settings: for Reduction [%] / Reduction [Difference]: HER 2 g a.i./ha, cyprosulfamide 50 g a.i./ha; for HER effect + SAF: HER dose 2 g a.i./ha + cyprosulfamide 50 g a.i./ha tank-mix; for HER effect + SAF / HER effect: Final assessment; for HER effect: HER dose 2 g a.i./ha, no safener
Method in brief: as §1

[5] = HER dose 40 g a.i./ha pre-emergence, 14 DAT
[6] = HER dose 40 g a.i./ha pre-emergence, 26 DAT
[7] = HER 8 g a.i./ha, cyprosulfamide 50 g a.i./ha
[8] = HER 32 g a.i./ha, cyprosulfamide 100 g a.i./ha
[9] = HER dose 80 g a.i./ha pre-emergence, 26 DAT

| SMILES | Reduction [%] (ZEAMA Sileno [2]; HER 8 g a.i./ha) | Reduction [Difference] (ZEAMA Sileno [2]; HER 8 g a.i./ha) | HER effect + SAF (ZEAMA Sileno [2]; HER dose 8 g a.i./ha) [%] | HER effect (ZEAMA Sileno [2]; HER dose 8 g a.i./ha) [%] | Reduction [%] (ZEAMA Sileno [3]; HER 40 g a.i./ha, 26 DAT) | Reduction [Difference] (ZEAMA Sileno [3]; HER 40 g a.i./ha, 26 DAT) | HER effect + SAF (ZEAMA Sileno [3]; [6]) [%] | HER effect (ZEAMA Sileno [3]; [6]) [%] | Reduction [%] (ZEAMA Sileno [4]; HER dose 2 g a.i./ha) | Reduction [Difference] (ZEAMA Sileno [4]; HER dose 2 g a.i./ha) | HER effect + SAF (crop damage with safener) (ZEAMA Sileno [4]; HER dose 2 g a.i./ha) [%] | HER effect (crop damage, herbicide without safener) (ZEAMA Sileno [4]; HER dose 2 g a.i./ha) [%] | Reduction [%] (ZEAMA Sileno [4]; HER dose 8 g a.i./ha) | Reduction [Difference] (ZEAMA Sileno [4]; HER dose 8 g a.i./ha) | HER effect + SAF (crop damage with safener) (ZEAMA Sileno [4]; HER dose 8 g a.i./ha) [%] | HER effect (crop damage, herbicide without safener) (ZEAMA Sileno [4]; HER dose 8 g a.i./ha) [%] | Reduction [%] (ZEAMA Sileno [4]; HER dose 32 g a.i./ha) | Reduction [Difference] (ZEAMA Sileno [4]; HER dose 32 g a.i./ha) | HER effect + SAF (crop damage with safener) (ZEAMA Sileno [4]; HER dose 32 g a.i./ha) [%] | HER effect (crop damage, herbicide without safener) (ZEAMA Sileno [4]; HER dose 32 g a.i./ha) [%] | other results |
| --- | --- | --- | --- | --- | --- | --- | --- | --- | --- | --- | --- | --- | --- | --- | --- | --- | --- | --- | --- | --- | --- |
| C=CC1(C(=O)NC2COC(C(=O)OC)C2)CC(c2cc(F)cc(F)c2)=NO1 (mixture of isomers) [Example 1.68] | 69 | 68 | 30 | 98 | 58 | 55 | 40 | 95 | 83 | 50 | 10 | 60 | 74 | 73 | 25 | 98 | 69 | 68 | 30 | 98 | Reduction [%] (ZEAMA Sileno [1]; HER 2 g a.i./ha, cyprosulfamide 50 g a.i./ha): 67%; Reduction [Difference] (ZEAMA Sileno [1]; HER 2 g a.i./ha, cyprosulfamide 50 g a.i./ha, damage without safener - damage with safener): 40; HER effect + SAF (ZEAMA Sileno [1]; HER dose 2 g a.i./ha + cyprosulfamide 50 g a.i./ha tank-mix): 20%; HER effect (ZEAMA Sileno [1]; HER dose 2 g a.i./ha, 0% = no injury, 100% = complete kill): 60%; Reduction [%] (ZEAMA Sileno [3]; HER 40 g a.i./ha, 14 DAT): 41%; Reduction [Difference] (ZEAMA Sileno [3]; HER 40 g a.i./ha, 14 DAT): 38; HER effect + SAF (ZEAMA Sileno [3]; [5]): 55%; HER effect (ZEAMA Sileno [3]; [5]): 93% |
| C=CC1(C(=O)NC2C=CC(C(=O)OC)C2)CC(c2cc(F)cc(F)c2)=NO1 (stereo not drawn) [Example 1.26] | – | – | – | – | 70 | 35 | 15 | 50 | – | – | – | – | 74 | 42 | 15 | 57 | 71 | 67 | 27 | 94 | Reduction [%] (ZEAMA Sileno [1]; [7]): 70%; Reduction [Difference] (ZEAMA Sileno [1]; [7]): 40; Reduction [%] (ZEAMA Sileno [1]; [8]): 71%; Reduction [Difference] (ZEAMA Sileno [1]; [8]): 67; HER effect + SAF (ZEAMA Sileno [1]; HER dose 8 g a.i./ha + cyprosulfamide 50 g a.i./ha tank-mix): 17%; HER effect (ZEAMA Sileno [1]; HER dose 8 g a.i./ha): 57%; HER effect + SAF (ZEAMA Sileno [1]; HER dose 32 g a.i./ha + cyprosulfamide 100 g a.i./ha tank-mix): 27%; HER effect (ZEAMA Sileno [1]; HER dose 32 g a.i./ha): 94%; Reduction [%] (ZEAMA Sileno [3]; HER 80 g a.i./ha, 26 DAT): 57%; Reduction [Difference] (ZEAMA Sileno [3]; HER 80 g a.i./ha, 26 DAT): 40; HER effect + SAF (ZEAMA Sileno [3]; [9]): 30%; HER effect (ZEAMA Sileno [3]; [9]): 70% |
| CCCSCCOC(=O)C1C=CC(NC(=O)C2(C)CC(c3cc(F)cc(F)c3)=NO2)C1 (stereo not drawn) [Example 1.34] | 60 | 30 | 20 | 50 | – | – | – | – | 100 | 20 | 0 | 20 | 80 | 40 | 10 | 50 | 78 | 35 | 10 | 45 | Reduction [%] (ZEAMA Abraxas): 50%; Reduction [Difference] (ZEAMA Abraxas): 25; HER effect + SAF (ZEAMA Abraxas): 25%; HER effect (ZEAMA Abraxas): 50%; Reduction [%] (ZEAMA Sileno [2]; HER 32 g a.i./ha): 44%; Reduction [Difference] (ZEAMA Sileno [2]; HER 32 g a.i./ha): 20; HER effect + SAF (ZEAMA Sileno [2]; HER dose 32 g a.i./ha): 25%; HER effect (ZEAMA Sileno [2]; HER dose 32 g a.i./ha): 45% |
| CC1(C(=O)NC2C=CC(C(=O)OCCSC(F)(F)F)C2)CC(c2cc(F)cc(F)c2)=NO1 (stereo not drawn) [Example 1.38] | – | – | – | – | – | – | – | – | 100 | 25 | 0 | 25 | 100 | 35 | 0 | 35 | 100 | 75 | 0 | 75 | Reduction [%] (ZEAMA Abraxas): 42%; Reduction [Difference] (ZEAMA Abraxas): 25; HER effect + SAF (ZEAMA Abraxas): 35%; HER effect (ZEAMA Abraxas): 60%; Reduction [%] (ZEAMA Sileno [2]; HER 32 g a.i./ha): 73%; Reduction [Difference] (ZEAMA Sileno [2]; HER 32 g a.i./ha): 55; HER effect + SAF (ZEAMA Sileno [2]; HER dose 32 g a.i./ha): 20%; HER effect (ZEAMA Sileno [2]; HER dose 32 g a.i./ha): 75% |

— patent US20230240297A1, “SELECTIVE HERBICIDES BASED ON SUBSTITUTED ISOXAZOLIN CARBOXAMIDES AND CYPROSULFAMIDE” (Bayer Aktiengesellschaft, priority 2020, published 2023)
